Assay results published in US6514971B1, “Cinnoline derivatives and use as medicine” (Zeneca Limited, priority 1996, dated 2003).

Experiments:
[1] = J. Karnatak Univ., Sci. (1984), 29, 82-6; cited from earlier work
[2] = molecular target: T1, VEGF receptor tyrosine kinase (Homo sapiens, UniProt P17948); assay: In vitro receptor tyrosine kinase inhibition test (VEGF receptor); format: biochemical
T1 construct: encoding most of the cytoplasmic domain, commencing with methionine 783 and including the termination codon; made in house; host or cells: Spodoptera frugiperda Sf21 insect cells (baculovirus); cleared Triton X100 lysate used as enzyme stock
T1 sequence (P17948 781-1338 limits assumed): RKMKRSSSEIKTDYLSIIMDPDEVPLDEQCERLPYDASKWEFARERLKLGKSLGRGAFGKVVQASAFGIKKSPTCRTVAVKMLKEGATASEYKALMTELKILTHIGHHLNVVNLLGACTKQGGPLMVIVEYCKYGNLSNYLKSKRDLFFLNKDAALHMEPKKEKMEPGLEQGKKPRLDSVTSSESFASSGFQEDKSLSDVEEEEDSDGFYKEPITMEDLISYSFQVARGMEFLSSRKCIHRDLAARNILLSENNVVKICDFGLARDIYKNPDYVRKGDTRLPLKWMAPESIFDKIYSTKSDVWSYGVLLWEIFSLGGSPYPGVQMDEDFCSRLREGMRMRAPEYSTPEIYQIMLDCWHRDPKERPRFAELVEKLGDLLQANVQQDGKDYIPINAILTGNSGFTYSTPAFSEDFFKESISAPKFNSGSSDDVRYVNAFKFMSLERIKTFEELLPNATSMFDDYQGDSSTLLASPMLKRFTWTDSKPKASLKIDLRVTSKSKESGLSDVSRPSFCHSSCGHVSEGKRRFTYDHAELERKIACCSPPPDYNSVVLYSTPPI
From the text: (§1) (a) In Vitro Receptor Tyrosine Kinase Inhibition Test
This assay determines the ability of a test compound to inhibit tyrosine kinase activity. […] These may then be expressed in a suitable expression system to obtain polypeptide with tyrosine kinase activity. […] This recombinant construct was co-transfected into insect cells (for example Spodoptera frugiperda 21 (Sf21)) with viral DNA (eg Pharmingen BaculoGold) to prepare recombinant baculovirus.
For expression of cFlt tyrosine kinase activity, Sf21 cells were infected with plaque-pure cFlt recombinant virus at a multiplicity of infection of 3 and harvested 48 hours later. […] The suspension was centrifuged for 10 minutes at 13.000 rpm at 4° C., the supernatant (enzyme stock) was removed and stored in aliquots at −70° C. Each new batch of stock enzyme was titrated in the assay by dilution with enzyme diluent (100 mM Hepes pH 7.4, 0.2 mM Na3VO4, 0.1% v/v Triton X100, 0.2 mM dithiothreitol). For a typical batch, stock enzyme is diluted 1 in 2000 with enzyme diluent and 50 μl of dilute enzyme is used for each assay well.
(§2) A stock of substrate solution was prepared from a random copolymer containing tyrosine, for example Poly (Glu, Ala, Tyr) 6:3:1 (Sigma P3899), stored as 1 mg/ml stock in PBS at −20° C. and diluted 1 in 500 with PBS for plate coating.
(§3) On the day before the assay 100 μl of diluted substrate solution was dispensed into all wells of assay plates (Nunc maxisorp 96-well immunoplates) which were sealed and left overnight at 4° C.
(§4) On the day of the assay the substrate solution was discarded and the assay plate wells were washed once with PBST (PBS containing 0.05% v/v Tween 20) and once with 50 mM Hepes pH7.4.
Test compounds were diluted with 10% dimethylsulphoxide (DMSO) and 25 μl of diluted compound was transferred to wells in the washed assay plates. “Total” control wells contained 10% DMSO instead of compound. Twenty five microliters of 40 mM MnCl2 containing 8 μM adenosine-5′-triphosphate (ATP) was added to all test wells except “blank” control wells which contained MnCl2 without ATP. To start the reactions 50 μl of freshly diluted enzyme was added to each well and the plates were incubated at room temperature for 20 minutes. The liquid was then discarded and the wells were washed twice with PBST. […] Plates were then incubated for 20-60 minutes at room temperature until the optical density value of the “total” control wells, measured at 405 nm using a plate reading spectrophotometer, was approximately 1.0.

[3] = molecular target: T2, epidermal growth factor (EGF) receptor tyrosine kinase (Homo sapiens, UniProt P00533); assay: In vitro receptor tyrosine kinase inhibition test (EGF receptor); format: biochemical
T2 construct: made in house; host or cells: insect cells (baculovirus, as for Flt)
T2 sequence (P00533 669-1210 limits assumed): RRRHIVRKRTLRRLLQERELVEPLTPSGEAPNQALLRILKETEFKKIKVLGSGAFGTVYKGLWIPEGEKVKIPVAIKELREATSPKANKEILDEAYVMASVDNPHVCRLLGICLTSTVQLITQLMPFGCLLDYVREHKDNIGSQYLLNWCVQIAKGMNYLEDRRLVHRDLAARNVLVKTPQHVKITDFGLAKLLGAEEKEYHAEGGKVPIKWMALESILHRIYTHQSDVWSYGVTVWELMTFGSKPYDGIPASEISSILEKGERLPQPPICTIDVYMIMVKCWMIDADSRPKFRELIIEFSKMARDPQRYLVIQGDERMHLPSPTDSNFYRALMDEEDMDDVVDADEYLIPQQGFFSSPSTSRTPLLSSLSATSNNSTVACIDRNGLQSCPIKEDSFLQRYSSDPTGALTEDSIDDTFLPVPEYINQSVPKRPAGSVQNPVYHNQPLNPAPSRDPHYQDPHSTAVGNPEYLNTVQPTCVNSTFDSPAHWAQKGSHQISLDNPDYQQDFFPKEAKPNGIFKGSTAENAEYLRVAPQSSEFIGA
From the text: as §1
This assay determines the ability of a test compound to inhibit tyrosine kinase activity. DNA encoding VEGF or epidermal growth factor (EGF) receptor cytoplasmic domains may be obtained by total gene synthesis (Edwards M, International Biotechnology Lab 5(3), 19-25, 1987) or by cloning. These may then be expressed in a suitable expression system to obtain polypeptide with tyrosine kinase activity. […] In the case of the VEGF receptor Flt (Genbank accession number X51602), a 1.7 kb DNA fragment encoding most of the cytoplasmic domain, commencing with methionine 783 and including the termination codon, described by Shibuya et al (Oncogene, 1990, 5: 519-524), was isolated from cDNA and cloned into a baculovirus transplacement vector (for example pAcYM1 (see The Baculovirus Expression System: A Laboratory Guide, L. A. King and R. D. Possee, Chapman and Hall, 1992) or pAc360 or pBlueBacHis (available from Invitrogen Corporation)). This recombinant construct was co-transfected into insect cells (for example Spodoptera frugiperda 21 (Sf21)) with viral DNA (eg Pharmingen BaculoGold) to prepare recombinant baculovirus. (Details of the methods for the assembly of recombinant DNA molecules and the preparation and use of recombinant baculovirus can be found in standard texts for example Sambrook et al, 1989. Molecular cloning—A Laboratory Manual, 2nd edition, Cold Spring Harbour Laboratory Press and O'Reilly et al, 1992, Baculovirus Expression Vectors—A Laboratory Manual. W. H. Freeman and Co. New York). For other tyrosine kinases for use in assays, cytoplasmic fragments starting from methionine 806 (KDR, Genbank accession number L04947) and methionine 668 (EGF receptor, Genbank accession number X00588) may be cloned and expressed in a similar manner.
For expression of cFlt tyrosine kinase activity, Sf21 cells were infected with plaque-pure cFlt recombinant virus at a multiplicity of infection of 3 and harvested 48 hours later. Harvested cells were washed with ice cold phosphate buffered saline solution (PBS) (10 mM sodium phosphate pH7.4, 138 mM NaCl, 2.7 mM KCl) then resuspended in ice cold HNTG/PMSF (20 mM Hepes pH7.5, 150 mM NaCl, 10% v/v glycerol, 1% v/v Triton X100. 1.5 mM MgCl2, 1 mM ethylene glycol-bis(βaminoethyl ether) N,N,N′,N′-tetraacetic acid (EGTA), 1 mM PMSF (phenylmethylsulphonyl fluoride); the PMSF is added just before use from a freshly-prepared 100 mM solution in methanol) using 1 ml HNTG/PMSF per 10 million cells. The suspension was centrifuged for 10 minutes at 13.000 rpm at 4° C., the supernatant (enzyme stock) was removed and stored in aliquots at −70° C. Each new batch of stock enzyme was titrated in the assay by dilution with enzyme diluent (100 mM Hepes pH 7.4, 0.2 mM Na3VO4, 0.1% v/v Triton X100, 0.2 mM dithiothreitol). For a typical batch, stock enzyme is diluted 1 in 2000 with enzyme diluent and 50 μl of dilute enzyme is used for each assay well.
as §2, §3, §4
Test compounds were diluted with 10% dimethylsulphoxide (DMSO) and 25 μl of diluted compound was transferred to wells in the washed assay plates. “Total” control wells contained 10% DMSO instead of compound. Twenty five microliters of 40 mM MnCl2 containing 8 μM adenosine-5′-triphosphate (ATP) was added to all test wells except “blank” control wells which contained MnCl2 without ATP. […]

Row | SMILES | anti-inflammatory and antiarthritic activity [1] | activity against VEGF receptor tyrosine kinase [2] | activity against epidermal growth factor (EGF) receptor tyrosine kinase [3]
1 | COc1ccc(Nc2cnnc3cc(OC)c(OC)cc23)cc1 [4-(4-methoxyanilino)-6,7-dimethoxycinnoline] | some anti-inflammatory and antiarthritic activity | – | –
2 | COCCOc1cc2nncc(Nc3cc(O)c(Br)cc3F)c2cc1OC [Example 9, 4-(4-bromo-2-fluoro-5-hydroxyanihno)-6-methoxy-7-(2-methoxyethoxy)cinnoline] | – | good activity | lack of significant activity
3 | COc1cc2nncc(Nc3cccc(Cl)c3)c2cc1OC [4-(3-chloroanilino)-6,7-dimethoxycinnoline] | some anti-inflammatory and antiarthritic activity | – | –
4 | COc1cc2c(Nc3cc(O)c(C)cc3F)cnnc2cc1OCc1csc(C)n1 [4-(2-fluoro-5-hydroxy-4-methylanilino)-6-methoxy-7-[(2-methylthiazol-4-yl)methoxy]cinnoline] | – | good activity | lack of significant activity
5 | COCCOc1cc2nncc(Nc3cc(O)c(C)cc3F)c2cc1OC [4-(2-fluoro-5-hydroxy-4-methylanilino)-6-methoxy-7-(2-methoxyethoxy)cinnoline] | – | good activity | lack of significant activity
6 | COc1cc2c(Nc3cc(O)c(C)cc3F)cnnc2cc1OCCCN1CCOCC1 [Example 15, 4-(2-fluoro-5-hydroxy-4-methylanilino)-6-metboxy-7-(3-morpholinopropoxy)cinnoline] | – | good activity | lack of significant activity
7 | COCCOc1cc2nncc(Nc3cc(O)c(Cl)cc3F)c2cc1OC [Example 8, 4-(4-chloro-2-fluoro-5-hydroxyanilino)-6-methoxy-7-(2-methoxyethoxy)cinnoline] | – | good activity | lack of significant activity
8 | COc1cc2c(Nc3cc(O)c(C)cc3F)cnnc2cc1OCc1nccn1C [4-(2-fluoro-5-hydroxy-4-methylanilino)-6-methoxy-7-[(1-methylimidazol-2-yl)methoxy]cinnoline] | – | good activity | lack of significant activity
